According to article PMC9395968, “Pristimerin, a triterpene that inhibits monoacylglycerol lipase activity, prevents the development of paclitaxel-induced allodynia in mice” (Frontiers in Pharmacology, 2022):

Legend:
[1] = biological target: T1, mouse monoacylglycerol lipase (MAGL) (Mus musculus, UniProt O35678); assay: fluorometric MAGL activity assay in paw skin supernatant (brain IC50 […]); format: biochemical
T1 construct: gene Mgll
T1 sequence (O35678 1-303): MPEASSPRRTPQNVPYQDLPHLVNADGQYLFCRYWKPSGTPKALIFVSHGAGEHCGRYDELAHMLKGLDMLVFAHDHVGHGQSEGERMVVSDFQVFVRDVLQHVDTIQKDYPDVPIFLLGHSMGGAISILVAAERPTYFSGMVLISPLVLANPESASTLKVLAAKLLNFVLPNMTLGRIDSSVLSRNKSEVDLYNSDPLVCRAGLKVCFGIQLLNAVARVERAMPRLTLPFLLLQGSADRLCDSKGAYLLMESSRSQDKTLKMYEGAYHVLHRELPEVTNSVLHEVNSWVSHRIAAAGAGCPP

[2] = biological target: T2, human recombinant monoacylglycerol lipase (MAGL) (Homo sapiens, UniProt Q99685); assay: colorimetric MAGL inhibitor screening kit (4-nitrophenyl acetate hydrolysis, […] nm); format: biochemical
T2 construct: gene MGLL
T2 sequence (Q99685 1-303): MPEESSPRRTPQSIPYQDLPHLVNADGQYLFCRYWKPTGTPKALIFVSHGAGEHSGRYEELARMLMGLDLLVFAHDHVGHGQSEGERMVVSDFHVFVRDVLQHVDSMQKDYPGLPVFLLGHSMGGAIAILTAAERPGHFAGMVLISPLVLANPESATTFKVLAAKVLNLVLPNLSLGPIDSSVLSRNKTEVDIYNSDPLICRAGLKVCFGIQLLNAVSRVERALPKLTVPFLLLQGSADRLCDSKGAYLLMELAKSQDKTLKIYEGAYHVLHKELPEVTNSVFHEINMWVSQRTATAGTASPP

COC(=O)[C@]1(C)CC[C@]2(C)CC[C@]3(C)C4=CC=C5C(=CC(=O)C(O)=C5C)[C@]4(C)CC[C@@]3(C)[C@@H]2C1 [pristimerin]
IC50 [1]: 0.596 µM | IC50 [2]: 0.13 µM
